One series concerns plant genome. In words: Southern blot for integration into the plant genome. Conditions: BglII-cleaved vs uncleaved DNA. It counts as in vivo, tomato. How it is done: Molecular analysis—Southern analysis was carried out according to standard procedures (e.g as set forth in Sambrook, J. & Russel, D. W. Molecular Cloning, Third Edition. Cold Spring Harbor Laboratory Press, Cold Spring Harbor (2001)). Probes for Southern analysis were labeled by the PCR-DIG procedure (Roche Molecular Biochemicals, Basel, Switzerland). DIG labeled probes (TYLCV-CP—SEQ ID NO: 40) which hybridize with nucleotides 530-908 of the sequence identified by GenBank Accession No. X15656 were prepared according to the manufacturers protocol. Northern and Western analyses were carried out according to standard procedures. Probes for Northern analysis were labeled as described for the Southern blot analysis. Detection of GUS and GFP activities were performed according to published procedures [Jefferson, R. A., EMBO J. 6, 3901-3907 (1987); Blumenthal, A., Plant Science 142, 93-99 (1999)]. Chemiluminescent probes for Western blots were prepared with the SuperSignal West Pico kit (Pierce, Rockford, Ill., USA), using polyclonal antibodies against TYLCV-CP (Bioreba, Reinach, Switzerland) All probes were prepared according to the respective manufacturer's protocol. […]
Southern analysis was done without shearing, and with or without cleaving DNA with BglII. Two major bands were detected in samples from IL-60-BS, as well as TYLCV-infected plants (lanes 3-6, and lane 2 respectively of FIG. 3a). […]

A further series concerns tomato plants. Put plainly: Vector replication, spread, reporter expression and symptoms in tomato plants (PCR, GUS staining). It counts as in vivo. How it is done:
Propagation of the virus-plasmid vectors and their administration to plants—E. coli cells were transformed with IL-60 (SEQ ID NO: 2), IL-60-BS (SEQ ID NO: 1), IL-60-BS-GUS and IL-60-BS-GFP and propagated under ampicillin selection; the construct was extracted using standard procedures. IL-60-BS was administered directly into plants, without mediation by Agrobacterium. The stem, or leaf petiole, of the recipient plant was punctured by a hypodermic needle. A capillary tube was inserted into the resultant hole, and approximately 2 microgram of DNA (in 100 μl of 5 mM Tris-HCl; pH 8.5) were pipetted into the capillary tube until fully soaked by the plant. For large-scale applications, samples were delivered into plants by the BIM-LAB instrument (Bio-OZ biotechnologies, Yad Mordechai, Israel).
PCR analysis—PCR analysis was carried out according to standard procedures. DNA for PCR analysis was extracted as described in Bernatzky R. and Tanksley, S. D. [Theor. Appl. Genet. 72:314-321 (1986)], from leaves positioned at least 3 leaves above the point of administration. Tomato plants carry Geminivirus sequences in their genome [Ashby, M. K. et al., Plant Mol. Biol. 35, 313-321 (1997)]. Thus, it was also necessary to ascertain that PCR products were obtained from vector templates and not from native viral infection or plant sequences. Therefore, PCR tests were carried out with primers distinguishing IL-60 from TYLCV, or spanning the junction between IL-60 and the plasmid. • (i) primers distinguishing IL-60 from TYLCV; 977 (forward): gaa ggc tga act tcg aca g (SEQ ID NO: 16), 966 (reverse): att ggg ctg ttt cca tag ggc (SEQ ID NO: 17) • (ii) primers which amplify the junction between Bluescript and IL-60; 939 (forward) aga gac acc gat tca ttt caa c (SEQ ID NO: 18); 940 (reverse) gcg gat aac aat ttc aca cag (SEQ ID NO: 19).
In order to detect the presence of plasmids carrying reporter genes, PCR was performed with primers amplifying the reporter gene inserted into IL-60-BS. • iii) GUS specific primers: 408 (forward) gaa caa cga act gaa ctg gca gac (SEQ ID NO: 25); 167 (reverse) cag cgt aag ggt aat gcg ag (SEQ ID NO: 26). • iv) GFP specific primers: 895 (forward) ggc cga att cag taa agg aga ag (SEQ ID NO: 27); 345 (reverse) tgt gtg gac agg taa tgg (SEQ ID NO: 28).
TYLCV, IL-60, IL-60-BS and reporter gene derivative plasmids were either agroinoculated or injected into tomato plants and their replication and spread was monitored with symptom observation, PCR analysis and Southern blot. The expression of viral and reporter genes was assessed using PCR, Northern and Western analysis, GUS staining and GFP fluorescence as described above in methods and materials.

Another series concerns Bemisia tabaci. In words: Transfer of IL-60-BS by Bemisia tabaci. Format: in vivo. As to conditions: insects fed on IL-60-BS-carrying tomato plants, transferred to healthy tomato plants; PCR. The source says:
Assay for Transfer of IL-60-BS by Bemisia tabaci—Bemisia tabaci were allowed to feed on IL-60-BS-carrying tomato plants (15 insects per plant). Insects were then fed on sucrose and transferred to healthy tomato plants. DNA was extracted from both types of plants and used as a template for PCR using primers which amplify a sequence specific to IL-60 (e.g. SEQ ID NO: 16 and NO: 17) or other relevant primer pairs.
Wild TYLCV is transmitted by the whitefly, Bemisia tabaci. To test whether the viral vector is also transmitted through a viral natural transmitter, plants carrying the IL-60-BS vector were fed to B. tabaci.

Another series relates to several fungi. As to conditions: PRN spraying in field tests; U.S. Pat. No. 5,698,425; cited from earlier work.

Regarding “IL-60-BS: IL-60 with Bluescript II-KS+ plasmid inserted, interrupting rep and C4 (SEQ ID NO: 1)”, the “integration into the plant genome” value in the series on plant genome was “had not been integrated into the plant's genome”. The “efficiency of administration into plants” value in the series with tomato plants (direct injection) is reported as “over 90%”. Besides, the “symptoms in injected plants” value with tomato plants (more than 64 injected tomato plants) was “did not present any symptom”. Besides, the “persistence of vector after injection” value in the series with tomato plants (tomato plants, PCR, duration of the plants life-span) is given as 12 months. In addition, in the series with tomato plants (tomato plants, leaves remote from the point of injection), the “vector found / replication indicated by PCR, time post injection” value is 3 days. Besides, in the series with Bemisia tabaci, the “transmission of vector by insects to non-carrying plants” value was “did not carry the IL-60-BS vector”.
`O=[N+]([O-])c1c(Cl)cccc1-c1c[nH]cc1Cl` [PRN, Pyrrolnitrin]: the “reduction in infectivity of several fungi” value in the series on several fungi is listed as “up to 8 fold”.
Take “IL-60: TYLCV-derived vector (SEQ ID NO: 2) with 60-nt coat protein deletion and frame shift”: the infection after agroinoculation entry in the series on tomato plants (tomato plants agroinoculated with the multimeric form, kept until fruit set) is listed as “systemic, but symptomless infection”.
